These results are taken from patent US6387955B1, “Enhanced anti-angiogenic activity of permanently charged derivatives of steroid hormones” (Pharmos Corporation, priority 1997, dated 2002).

In series [1] the test system is MCF-7 tumor. Nature of the series: TBB in the MCF-7 model, daily dosing (preliminary data). The class given is in vivo, mice. The following applies: two weeks of daily dosing. The text has this: Preliminary data on TBB in the MCF-7 model have also been generated. […] Administration of TBB to MCF-7 tumor-bearing mice caused significant tumor regression that amounted to 32% over two weeks of daily dosing. TMI induced a 20% regression over a 25 day time course.

Series [2] can be described thus: Tolerability in mice. The class given is in vivo.
For series [3], the system named is gelatinase A (MMP-2), 72 kDa. Put plainly: Collagenolytic activity by zymography in human fibrosarcoma cell supernatant, gelatinase A. The class given is cell-based. Here is the method:
(§1) HT-1080 cells (CCL 121), derived from a metastatic lesion of a human fibrosarcoma and primary bovine endothelial cells were obtained from the American Type Culture collection (Rockville, Md.). Cells were maintained under an atmosphere of 5% CO2, in Dulbecco's Minimal Essential Medium (DMEM) supplemented with 10% fetal calf serum, glutamine, vitamins, non-essential amino acids and antibiotics (Biological Industries, Kibbutz Beth HaEmek, Israel).
(§2) Sub-confluent cell cultures were incubated for 6 to 24 hours in serum-free DMEM, either with or without various concentrations of TMI or tamoxifen, and the resultant supernatant was analyzed for collagenolytic activity. The collagenolytic activity was determined using a gelatin-impregnated (1 mg/ml, Difco, Detroit Mich.) SDS-PAGE 8% gel, as previously described, with minor modifications. Briefly, the culture media samples were separated on the substrate-impregnated gels under non-reducing conditions, followed by 30 min of incubation of 2.5% Triton X-100 (BDH, UK). The gels were then incubated for 16 hours at 37° C. in 50 mM TRIS, 0.2 M NaCl, 5 mM CaCl2, 0.02% BRIJ 35 (w/v) at pH 7.6. […] The intensity of the stained bands was then determined using a computerized densitometer (Molecular Dynamics Model 300A). […]

Series [4] deals with gelatinase B (MMP-9), 92 kDa. Nature of the series: Collagenolytic activity by zymography in human fibrosarcoma cell supernatant, gelatinase B. The class given is cell-based. The procedure: as §1, §2
The subject of series [5] is MCF-7 tumors. Put plainly: Growth of MCF-7 tumors implanted in ventral fat pad of nude mice, tumor size by MRI. The following applies: for change in tumor size relative to day 0 (in words): slow-release pellet s.c. in flank, 25 day time course, MRI. The class given is in vivo. Here is the method: (§3) Female CD1-nu/nu athymic mice (6 weeks old) were obtained from the Weizmann Institute Department of Animal Services. MCF-7 cells, serially passed as described above, were detached from the culturing flasks with 0.03% EDTA in phosphate buffered saline (PBS) and washed several times in normal saline. Cells (10^7/innoculum) were then injected into the ventral fat pad at the level of the breast. Coincident with cell introduction, a slow-release pellet of estradiol (0.72 mg/pellet, 45-day release profile; Innovative Research, Sarasota, Fla.) was implanted subcutaneously in the flank of the animal. Mice were anesthetized with ketamine/Rompun (i.p.) for the surgical procedures. […] At this point, animals were randomized into four study groups. In the first, the estrogen pellet was removed and replaced with a slow-release TMI-laden pellet (6.3 mg, 45-day release) (n=5). In the second group, the estrogen pellet was removed and replaced with a tamoxifen pellet (n=7). The third group was treated with a blank (placebo) pellet (n=5), while the fourth group was reimplanted with an estradiol pellet (n=4). TMI and placebo-treated animals were imaged (under ketamine/Rompun anesthesia) either immediately before pellet exchange (day 0) or at day 3, 6, 12 and 25 after pellet exchange.
MRI images were recorded with a Bruker 4.7 (tesla)/30 Biospec spectrometer (Bruker Medizintechnik, Rheinstetten, Germany). 1H Spin-echo images were recorded at 200.12 MHz using a custom-made 4.5 cm rf coil with an image data matrix of 256×128 pixels. Pilot scans of the tumors were completed using a fast transverse multi-slice spin-echo sequence (giving T1-weighted spectra; inter-echo time (TE)=16 msec, recovery time (TR)=500 msec) followed by T2-weighted sequences in which axial slices perpendicular to the spine (i.e., a coronal orientation) were recorded. In the latter case, spin-echo images were obtained using a 4 cm field of view, 1 mm slice thickness, 1.2 mm slice-to-slice distance and a four-sequence average. The TE and TR were optimized to provide the best image contrast generating values of 80 and 3200 msec, respectively. This gave a total imaging time of approximately 30 min. […] Tumor size was calculated using a slice-to-slice reconstruction in which the slice surface area was obtained from histograms provided by the resident Bruker software package using the following relationship: […]
where XSA is the cross-sectional area of an internal slice, ES is the cross-sectional area of an edge slice, l is the slice thickness and ssd is the distance from the middle of one slice to the middle of the next. For image analysis, the average pixel intensity of viable portions of MCF-7 tumors was determined from a central tumor slice using histograms generated by the dedicated Bruker software package. […]

For series [6], the system named is MCF-7 tumors. Nature of the series: Tumor necrosis in MCF-7 tumors by T2-weighted MRI. The class given is in vivo, nude mice. Here is the method: as §3
MRI images were recorded with a Bruker 4.7 (tesla)/30 Biospec spectrometer (Bruker Medizintechnik, Rheinstetten, Germany). 1H Spin-echo images were recorded at 200.12 MHz using a custom-made 4.5 cm rf coil with an image data matrix of 256×128 pixels. Pilot scans of the tumors were completed using a fast transverse multi-slice spin-echo sequence (giving T1-weighted spectra; inter-echo time (TE)=16 msec, recovery time (TR)=500 msec) followed by T2-weighted sequences in which axial slices perpendicular to the spine (i.e., a coronal orientation) were recorded. In the latter case, spin-echo images were obtained using a 4 cm field of view, 1 mm slice thickness, 1.2 mm slice-to-slice distance and a four-sequence average. The TE and TR were optimized to provide the best image contrast generating values of 80 and 3200 msec, respectively. This gave a total imaging time of approximately 30 min. Under the conditions reported, the in-plane resolution was 155×310 μm. Tumor size was calculated using a slice-to-slice reconstruction in which the slice surface area was obtained from histograms provided by the resident Bruker software package using the following relationship:
where XSA is the cross-sectional area of an internal slice, ES is the cross-sectional area of an edge slice, l is the slice thickness and ssd is the distance from the middle of one slice to the middle of the next. For image analysis, the average pixel intensity of viable portions of MCF-7 tumors was determined from a central tumor slice using histograms generated by the dedicated Bruker software package. […] Fibrosis was defined as those areas manifesting a decrease in pixel intensity of […].
In vivo tumor histology was assessed for TMI and placebo-treated tumors using T2-weighted MR images. […] At this time, the area of necrosis was two-fold higher than that observed on day 0 (increasing from an average of 20% to approximately 40%).

Series [7] deals with MCF-7 human breast cancer. The following applies: MCF-7 human breast cancer implanted in nude mice; cited from earlier work.
Where [8] appears, read: direct comparison, human fibrosarcoma cells.
Setting [9] is: doses 0.5 to 20 μM, 6 and 24 hours, result at or up to 20 μM.

In turn, Tamoxifen benzyl bromide [TBB] registered a tumor regression in series [1] of 32%. Besides, the adverse effects entry in series [2] (doses as high as 10 mg/Kg given daily over a two week time course) is listed as “no adverse effects”. Also, the tolerability entry in series [2] (mice) is “well tolerated”. The “potency relative to TMI as inhibitor of 72 kDa (gelatinase A, MMP-2) collagenase” value in series [3] (setting [8]) is “more potent than TMI”. Moreover, the “potency relative to TMI as inhibitor of 92 kDa (gelatinase B, MMP-9) collagenase” value in series [4] (setting [8]) is “more potent than TMI”.

As to `CC/C(=C(\c1ccccc1)c1ccc(OCCN(C)C)cc1)c1ccccc1` [tamoxifen, reference compound], the “tolerance of tumors to the drug and regrowth over time” value in series [5] (MCF-7 tumors in nude mice) was “became tolerant to the effects of the drug and began to regrow over time”. In addition, in series [5], the “change in tumor size relative to day 0 (in words)” value was “tumoristatic”. Moreover, in series [6] (preliminary comparison of TMI and tamoxifen), the “maximum extent of necrosis” value is listed as 50%. The “onset of tumor necrosis” value in series [6] (sampling day after pellet exchange) was not above 3 days. Moreover, the “inhibition of gelatinase A (MMP-2) collagenolytic activity” value in series [3] (setting [9]) is recorded as “no significant inhibitory activity”. Further, in series [4] (setting [9]), the “inhibition of gelatinase B (MMP-9) collagenolytic activity” value is on record as “no significant inhibitory activity”. In addition, the “effect on tumor growth” value in series [7] was “merely slowed tumor growth”.

In the case of `C[C@]12CC[C@@H]3c4ccc(O)cc4CC[C@H]3[C@@H]1CC[C@@H]2O` [estrogen, estradiol], the “change in tumor size relative to day 0 (in words)” value in series [5] is recorded as “more than doubled in size”.
